Where two headings read alike, the source gives them in different places. Values belong to the compound of their own block, whether it stands above or below them.
Key:
[1] = PK parameters in male ICR mice; type: in vivo
Description: (§1) The pharmacokinetics (PK) of representative Compounds of the Disclosure were evaluated in mice or rats to provide an assessment of their oral bioavaibility. All animal experiments were performed under the guidelines of the University of Michigan Committee for Use and Care of Animals and using an approved animal protocol.

AR protein = target: T1, AR protein (Homo sapiens, UniProt P10275); test: Western blotting of AR protein degradation in VCaP cells; type: cell-based
T1 construct: endogenous in cells; host or cells: VCaP
T1 sequence (P10275 1-920): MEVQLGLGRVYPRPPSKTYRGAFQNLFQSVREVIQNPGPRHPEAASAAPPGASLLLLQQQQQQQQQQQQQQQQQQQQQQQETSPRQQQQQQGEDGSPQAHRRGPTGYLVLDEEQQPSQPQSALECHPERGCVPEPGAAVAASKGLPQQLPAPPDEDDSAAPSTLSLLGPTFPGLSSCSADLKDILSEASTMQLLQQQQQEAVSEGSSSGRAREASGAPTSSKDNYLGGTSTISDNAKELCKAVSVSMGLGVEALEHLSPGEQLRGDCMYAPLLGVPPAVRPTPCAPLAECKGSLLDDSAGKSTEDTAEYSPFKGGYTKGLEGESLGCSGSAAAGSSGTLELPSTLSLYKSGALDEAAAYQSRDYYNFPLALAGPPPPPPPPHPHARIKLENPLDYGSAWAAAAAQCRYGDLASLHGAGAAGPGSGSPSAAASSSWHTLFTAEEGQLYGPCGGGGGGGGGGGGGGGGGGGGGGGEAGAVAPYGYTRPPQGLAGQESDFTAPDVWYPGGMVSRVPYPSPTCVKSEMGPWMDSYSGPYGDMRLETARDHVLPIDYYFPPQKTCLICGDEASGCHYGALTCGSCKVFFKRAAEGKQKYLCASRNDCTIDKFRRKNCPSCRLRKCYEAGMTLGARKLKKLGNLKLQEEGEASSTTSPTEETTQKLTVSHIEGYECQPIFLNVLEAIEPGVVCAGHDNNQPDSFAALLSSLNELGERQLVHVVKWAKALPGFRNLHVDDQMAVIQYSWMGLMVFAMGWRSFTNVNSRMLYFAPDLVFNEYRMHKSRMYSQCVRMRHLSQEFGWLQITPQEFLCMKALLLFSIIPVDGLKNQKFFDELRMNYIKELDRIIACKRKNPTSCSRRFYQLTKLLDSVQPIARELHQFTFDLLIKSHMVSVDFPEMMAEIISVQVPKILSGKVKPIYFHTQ
Description: The treated cells were lysed with RIPA buffer. […] GAPDH was used as a loading control.
Bands were quantified with ImageJ software. The relative numbers of each band obtained from normalization with its corresponding GAPDH level were compared with Prism 8 software. The DC50 values were produced from Prism 8, and the DC90 values were calculated with an equation=Bottom+(Top−Bottom)/(1+10^((Log EC50−X)*HillSlope) based on DC50 and Hillslope values.

[2] = PK parameters in male mice (Table 9); type: in vivo
Description: as §1

[3] = ICR, mouse, in vivo, IV 1 mg/kg

- AUC(0-t) ([1]; IV 2 mg/kg): 11034.8 ng·h/mL
- Cl-obs ([1]; IV 2 mg/kg): 1.9 mL/min/kg
- Vss ([1]; IV 2 mg/kg): 2.7 L/kg
- AUC(0-t) ([1]; PO 5 mg/kg): 20599.8 ng·h/mL
- Cmax ([1]; PO 5 mg/kg): 1389.4 ng/mL
- F ([1]; PO 5 mg/kg): 74.7%
- T1/2 ([1]; PO 5 mg/kg): 12.0 h
SMILES: CC1(C)[C@H](NC(=O)c2ccc(N3CCN(CC4CN(c5ccc6c(c5)C(=O)N(C5CCC(=O)NC5=O)C6=O)C4)CC3)cc2)C(C)(C)[C@H]1Oc1ccc(C#N)c(Cl)c1 (some centres unmarked) [Cpd. No. 112, N-((1r,3r)-3-(3-chloro-4-cyanophenoxy)-2,2,4,4-tetramethylcyclobutyl)-4-(4-((1-(2-(2,6-dioxopiperidin-3-yl)-1,3-dioxoisoindolin-5-yl)azetidin-3-yl)methyl)piperazin-1-yl)benzamide]

SMILES: CN(c1ccc(C#N)c(Cl)c1)[C@H]1CC[C@H](NC(=O)c2ccc(N3CC(CN4CCN(c5ccc6c(c5)C(=O)N(C5CCC(=O)NC5=O)C6=O)CC4)C3)cc2)CC1 (some centres unmarked) [compound 239, N-((1r,4r)-4-((3-chloro-4-cyanophenyl)(methyl)amino)cyclohexyl)-4-(3-((4-(2-(2,6-dioxopiperidin-3-yl)-1,3-dioxoisoindolin-5-yl)piperazin-1-yl)methyl)azetidin-1-yl)benzamide]
- % AR protein degradation in VCaP Cells (AR protein; 0.001 μM): 73%
- % AR protein degradation in VCaP Cells (AR protein; 0.01 μM): 91%
- % AR protein degradation in VCaP Cells (AR protein; 0.1 μM): 95%
- % AR protein degradation in VCaP Cells (AR protein; 1 μM): 94%
- AUC(0-t) ([2]; IV 1 mg/kg): 1118 ng·h/mL
- Cl ([2]; IV 1 mg/kg): 13.2 mL/min/kg
- T1/2 ([2]; IV 1 mg/kg): 8.8 h
- Vss ([2]; IV 1 mg/kg): 8.25 L/kg
- AUC(0-t) ([2]; PO 3 mg/kg): 1134 ng·h/mL
- Cmax ([2]; PO 3 mg/kg): 92.2 ng/mL
- T1/2 ([2]; PO 3 mg/kg): 8.1 h
- Tmax ([2]; PO 3 mg/kg): 4.0 h
- F ([2]; PO 3 mg/kg vs IV 1 mg/kg): 34%

- AUC(0-t) ([1]; IV 1 mg/kg): 2565 ng·h/mL
- Cl-obs ([1]; IV 1 mg/kg): 3.2 mL/min/kg
- Vss ([1]; IV 1 mg/kg): 6.8 L/kg
- AUC(0-t) ([1]; PO 3 mg/kg): 2550.1 ng·h/mL
- Cmax ([1]; PO 3 mg/kg): 134.4 ng/mL
- F ([1]; PO 3 mg/kg): 33.1%
- T1/2 ([1]; PO 3 mg/kg): 67.8 h
SMILES: CC1(C)[C@H](NC(=O)c2ccc(N3CCC(CN4CCN(c5ccc6c(c5)C(=O)N(C5CCC(=O)NC5=O)C6=O)CC4)CC3)cc2)C(C)(C)[C@H]1Oc1ccc(C#N)c(Cl)c1 (some centres unmarked) [compound 190, N-((1r,3r)-3-(3-chloro-4-cyanophenoxy)-2,2,4,4-tetramethylcyclobutyl)-4-(4-((4-(2-(2,6-dioxopiperidin-3-yl)-1,3-dioxoisoindolin-5-yl)piperazin-1-yl)methyl)piperidin-1-yl)benzamide]

SMILES: CN(c1ccc(C#N)c(Cl)c1)[C@H]1CC[C@H](NC(=O)c2ccc(N3CCN(C4CN(c5ccc6c(c5)C(=O)N(C5CCC(=O)NC5=O)C6=O)C4)CC3)cc2)CC1 (some centres unmarked) [Cpd. No. 238, N-((1r,4r)-4-((3-chloro-4-cyanophenyl)(methyl)amino)cyclohexyl)-4-(4-(1-(2-(2,6-dioxopiperidin-3-yl)-1,3-dioxoisoindolin-5-yl)azetidin-3-yl)piperazin-1-yl)benzamide]
- % AR protein degradation in VCaP Cells (AR protein; 0.001 μM): 78%
- % AR protein degradation in VCaP Cells (AR protein; 0.01 μM): 90%
- % AR protein degradation in VCaP Cells (AR protein; 0.1 μM): 89%
- % AR protein degradation in VCaP Cells (AR protein; 1 μM): 78%
- AUC(0-t) ([2]; IV 2 mg/kg): 6481 ng·h/mL
- Cl ([2]; IV 2 mg/kg): 5 mL/min/kg
- T1/2 ([2]; IV 2 mg/kg): 5.5 h
- Vss ([2]; IV 2 mg/kg): 1.8 L/kg
- AUC(0-t) ([2]; PO 5 mg/kg): 8254 ng·h/mL
- Cmax ([2]; PO 5 mg/kg): 1140 ng/mL
- T1/2 ([2]; PO 5 mg/kg): 4.6 h
- Tmax ([2]; PO 5 mg/kg): 2.0 h
- F ([2]; PO 5 mg/kg vs IV 2 mg/kg): 51%

SMILES: CN(c1ccc(C#N)c(Cl)c1)[C@H]1CC[C@H](NC(=O)c2ccc(N3CCN(CC4CCN(c5ccc6c(c5)C(=O)N(C5CCC(=O)NC5=O)C6=O)CC4)CC3)cc2)CC1 (some centres unmarked) [compound 233, N-((1r,4r)-4-((3-chloro-4-cyanophenyl)(methyl)amino)cyclohexyl)-4-(4-((1-(2-(2,6-dioxopiperidin-3-yl)-1,3-dioxoisoindolin-5-yl)piperidin-4-yl)methyl)piperazin-1-yl)benzamide]
- % AR protein degradation in VCaP Cells (AR protein; 0.001 μM): 49%
- % AR protein degradation in VCaP Cells (AR protein; 0.01 μM): 78%
- % AR protein degradation in VCaP Cells (AR protein; 0.1 μM): 87%
- % AR protein degradation in VCaP Cells (AR protein; 1 μM): 76%
- clearance [2, 3]: 8.5 mL/min/kg
- half-life [2, 3]: 26 h
- AUC(0-t) ([2]; ICR, mouse, in vivo, IV 1 mg/kg, read-out: AUC(0-t)): 1040 ng·h/mL
- Vd ([2]; ICR, mouse, in vivo, IV 1 mg/kg, read-out: Vss): 16.8 L/kg
- half-life ([2]; ICR, mouse, in vivo, PO 3 mg/kg): 41 h
- AUC(0-t) ([2]; ICR, mouse, in vivo, PO 3 mg/kg, read-out: AUC(0-t)): 940 ng·h/mL
- Cmax ([2]; ICR, mouse, in vivo, PO 3 mg/kg, read-out: Cmax): 60 ng/mL
- Tmax ([2]; ICR, mouse, in vivo, PO 3 mg/kg, read-out: Tmax): 4 h
- F ([2]; PO 3 mg/kg vs IV 1 mg/kg): 30%

— US20230233690A1, “ANDROGEN RECEPTOR PROTEIN DEGRADERS” (THE REGENTS OF THE UNIVERSITY OF MICHIGAN, priority 2020, published 2023)
